EP4692059A1, “CATIONIC LIPID HAVING DISULFIDE BOND” (Tohoku University, priority 2023, dated 2024)

Legend:
[1] = tested on: liver; assay: In vivo gene expression, luciferase luminescence in the liver after tail vein administration (Experimental Example 7); conditions: BALB/c mouse, mRNA 0.05 mg/kg
Description: LNP encapsulating mRNA that expresses luciferase (cationic lipid:DOPC:Chol:DMG-PEG2k = 52.5:7.5:40:1.5 (molar ratio)) was prepared by the method described in [Experimental Example 6], 1.
The prepared each mRNA-encapsulating LNP dispersion was administered from the tail vein of BALB/c mouse (male, 5-week-old). The dose of mRNA was set to 0.05 mg per 1 kg body weight of the mouse, and the dose of the mRNA-encapsulating LNP dispersion was set to 10 µL per 1 g body weight of the mouse. After 4.5 hr from the administration of the mRNA-encapsulating LNP dispersion, a PBS solution of D-luciferin potassium was administered into the abdominal cavity of the mouse. The dose of D-luciferin potassium was set to 3 mg per mouse, and the dose of the PBS solution of D-luciferin potassium was set to 200 µL per mouse. After 15 min from the administration of the PBS solution of D-luciferin potassium, the mouse was euthanized, and the liver was isolated. The luminescence in the liver was quantified using an in vivo imaging system (IVIS) with an exposure of 10 sec. The amount of luminescence in the liver was quantified by image analysis using Live Imaging software attached to IVIS. The amount of luminescence (photons/sec) was calculated from the acquired image and used as an index of gene expression activity. The cationic lipids used, the luminescence intensity in the liver, and the relative luminescence intensity (= luminescence intensity in the liver when cationic lipid of Example was used/luminescence intensity in the liver when cationic lipid of Comparative Example was used) are shown in Table 9. For example, "3.94E+09" means "3.94×10^9". […]

[2] = tested on: mouse red blood cells; assay: Hemolysis activity (membrane fusion ability) at pH 7.4 and 5.5 (Experimental Example 8); format: cell-based, ICR mice; conditions: physiological pH (7.4); final lipid concentration 100 µM; Fig. 3
Description: LNP encapsulating mRNA that expresses luciferase (cationic lipid:DOPC:Chol:DMG-PEG2k = 52.5:7.5:40:1.5 (molar ratio)) was prepared by the method described in […], 1. As cationic lipid, the cationic lipid of Comparative Example, compound 94, compound 112, compound 162, compound 181, or compound 194 was used.
The collected blood was immediately mixed with 1.0 µL of heparin solution (5000 U/5 mL). About 9 mL of PBS was added to the blood to make the total volume 10 mL. The mixture was then mixed by inversion and centrifuged (4°C, 400 g, 10 min). The supernatant containing plasma components was removed using a Pasteur pipette. About 9 mL of PBS was added to the blood cell components to make the total volume 10 mL, and the mixture was centrifuged again. A similar washing procedure was repeated 4 times to obtain mouse red blood cells.
2, 4, 6, 8, and 10 µL of mouse red blood cells were weighed and diluted with PBS containing 1 w/v% Triton-X100. The entire diluted solution was transferred to a clear 96-well plate, and the absorbance at 545 nm was measured using a plate reader. A calibration curve was created using these samples, and the point where the absorbance reached 1 was determined as the amount of blood cells to be used in the hemolysis assay. Empty LNP solution was weighed into an Eppendorf tube and diluted with malic acid-PBS buffer (pH 5.5, pH 7.4), followed by addition of mouse red blood cells. The final lipid concentration was 100 µM at pH 7.4 and 33.3 µM at pH 5.5, and the final volume of the solution was 250 µL. Each tube was shaken at 1900 rpm for 15 min. Each sample was centrifuged under centrifugation conditions (4°C, 400 g, 5 min), and 100 µL of the supernatant was transferred to a clear 96-well plate and the absorbance at 545 nm was measured. Untreated red blood cells were used as the negative control. 1 w/v% Triton-X was used as the positive control. The hemolysis activity of each sample was calculated using the following formula: Hemolysis activity (%) = 100×(absorbance of each sample - absorbance of negative control)/(absorbance of positive control - absorbance of negative control).

SMILES: CCCCCCCC/C=C\CCCCCCCC(=O)Oc1ccc(CC(=O)OCCC2CCN(CCSSCCN3CCC(CCOC(=O)Cc4ccc(OC(=O)CCCCCCC/C=C\CCCCCCCC)cc4)CC3)CC2)cc1 [Comparative Example, reference compound]
- amount of luminescence (photons/sec) in liver ([1]; tail vein, 4.5 hr after administration, LNP cationic lipid:DOPC:Chol:DMG-PEG2k = 52.5:7.5:40:1.5, prepared as in Experimental Example 6): 2.05E+09 photons/sec
- relative amount of luminescence ([1]; liver luminescence relative to cationic lipid of Comparative Example): 1.00
- hemolysis activity [2]: none
